# Laboratory results reported in patent publication US20090175838A1, “METHODS OF MODULATING IMMUNE FUNCTION” (priority 2007, published 2009).
# No end group written: not given here. *: point of attachment. Biotin = O=C1N[C@H]2[C@H](CS[C@H]2CCCCC(=O)*)N1
# Key:
# [1] = system: human B-cell lines, Raji and Daudi; assay: Binding of biotinylated synthetic peptide to B-cell lines (Streptavidin-PE flow cytometry); assay type: cell-based; settings: 50 μM
# Procedure: (§1) The ability of synthetic peptides to compete with binding of CLIP peptides and result in the cell surface expression of CD1d was determined.
# (§2) Results: The results shown in FIG. 5 are expressed in histogram analyses. The Y axis represents cell number of the 5000 live cells versus the X axis which is a reflection of relative Fitc fluorescence versus Streptavidin-PE (eBioscience, Cat. #12-4317) that will bind with high affinity to cell-bound biotinylated peptides. The distance between the histogram from the isotype control staining versus the histogram reflecting the specific stain and is a measure of level of cell surface CD1d.
# (§3) Cell Culture Conditions: The Raji and Daudi cell lines were purchased from American Type Culture Collection, were thawed, and grown in RPMI 1640 medium supplemented with standard supplements, including 10% fetal calf serum, gentamycin, penicillin, streptomycin, sodium pyruvate, HEPES buffer, 1-glutamine, and 2-ME.
# Protocol: Cells were plated into a 12 well plate with 3 mls total volume containing approximately 1.5×10^6/well for Daudi cells and 3.0×10^6/well for Raji cells. Treatment groups included no treatment as control and biotinylated […] (SEQ ID NO. 1) (also referred to as MKN 5) at 50 μM final concentration based on the reported molarity of the synthesized compounds. […]
# [2] = system: cell surface CD1d on Raji and Daudi cells; assay: Cell surface expression of CD1d after competing peptide (flow cytometry, anti-CD1d); assay type: cell-based, human; settings: 50 μM, both cell lines
# Procedure: as §1, §2, §3
# Protocol: Cells were plated into a 12 well plate with 3 mls total volume containing approximately 1.5×10^6/well for Daudi cells and 3.0×10^6/well for Raji cells. Treatment groups included no treatment as control and biotinylated […] […]
# Harvested cells were stained using standard staining procedure that called for a 1:100 dilution of PE anti-CD1d. […] Samples were acquired and analyzed on a Coulter Excel Flow Cytometer.
# [3] = system: cell surface CLIP on Raji or Daudi cells; assay: MKN1 (bioCLIP) effect on cell surface CLIP level (flow cytometry); assay type: cell-based, human; settings: 24 and 48 hours
# Procedure: (§4) The ability of MKN1 (bioCLIP) to alter cell surface CLIP and CD74 levels was determined using Raji or Daudi cells.
# (§5) Data were analyzed by histogram with Y axis represents cell number of the 5000 live cells versus the X axis which is a reflection of relative FITC fluorescence with either antibodies to CLIP or CD74. The distance between the histogram from the isotype control staining versus the histogram reflecting the specific stain and is a measure of level of cell surface CLIP or CD74 when staining a population of live Raji or Daudi cells.
# as §3
# (§6) Protocol: Cells were plated into a 12-well plate with 3 mls total volume containing approximately 0.5×10^6/mL for Daudi cells and 0.5×10^6/mL for Raji cells. […]
# (§7) Harvested cells were stained using standard staining procedure that called for a 1:100 dilution of Fitc-anti-human CLIP or CD74 antibody (FITC, Pharmingen, Cat # 554647) or isotype control. […] Samples were acquired and analyzed on a Coulter Excel Flow Cytometer.
# [4] = system: cell surface CD74 on Raji or Daudi cells; assay: MKN1 (bioCLIP) effect on cell surface CD74 level (flow cytometry); assay type: cell-based, human; settings: 24 and 48 hours
# Procedure: as §4, §5, §3, §6, §7
# cell surface CLIP on Raji or Daudi cells, sequence (P04233 97-120): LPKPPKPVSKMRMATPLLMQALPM
Substance,binding of biotinylated peptide to B-cell lines ([1]; 4 hours),binding of biotinylated peptide to B-cell lines ([1]; 24 hours),cell surface expression of CD1d ([2]; 4 hours),cell surface expression of CD1d ([2]; 24 hours),cell surface CLIP level [3],cell surface CD74 level [4]
FRIMAVLAS (also: biotin),bound with high affinity,Less binding,marginally,slightly more,–,–
SGG GSK MRM ATP LLM QAL Y (Biotin-SGGGSKMRMATPLLMQALY) [MKN1 (bioCLIP)],–,–,–,–,alters cell surface CLIP and CD74 levels,alters cell surface CLIP and CD74 levels
